Data set [1] has as its target T1, PI3K-α kinase (p110α/p85α) (Homo sapiens, UniProt P42336).
T1 construct: purchased Invitrogen PV4788
Description: Determination of PI3K kinase activity (ADP Transcreener, fluorescence polarization). It is filed as biochemical. The following applies: for IC50: Table 1, ATP 10 μM, read-out: PI3K-α/nM (IC50 of inhibitory activity against PI3K kinase). (In general: Fluorescence polarisation rises when a labelled molecule tumbles more slowly, as on binding a larger partner.)

Data set [2] concerns the target T2, PI3K-β kinase (p110β/p85α) (Homo sapiens, UniProt P42338).
T2 construct: purchased Millipore 14-603
The description is as above. The data set is classed as biochemical. The following applies: Table 1; ATP 10 μM; read-out: PI3K-β/nM (IC50 of inhibitory activity against PI3K kinase).

For data set [3], the target named is T3, PI3K-δ kinase (p110δ/p85α) (Homo sapiens, UniProt O00329).
T3 construct: purchased Millipore 14-604M
The data set is described as above. The following applies: Table 1; ATP 10 μM; read-out: PI3K-δ/nM (IC50 of inhibitory activity against PI3K kinase). The data set is classed as biochemical.

The nature of data set [4]: Metabolism stability assay in liver microsomes. The data set is classed as in vitro ADME, mouse. The following applies: liver microsomal metabolism in mice. Here is the method:
Buffer A: 1 L solution of 100 mM potassium dihydrogen phosphate containing 1 mM EDTA (Sigma, V900157-100G) was prepared. Buffer B: 1 L solution of 100 mM dipotassium hydrogen phosphate containing 1 mM EDTA was prepared. Buffer C: 700 mL of buffer B was taken out and titrated with buffer A to pH 7.4.
2.1 10 μl of 10 mM compound to be tested and 10 μl of 10 mM ketanserin were taken out and 190 μl of pure acetonitrile was added to each of them to prepare 500 μM compound to be tested and ketanserin, respectively.
2.2 20 μl (20 mg/mL) of liver microsomes (XENOTECH, H0610) stock solution was added to 513.4 μl of buffer C on wet ice. 0.75 mg/mL liver microsomal solution was obtained.
2.3 1.5 μl of each of the above-mentioned compound to be tested and ketanserin solution was added to 498.5 μl of liver microsomal solution (0.7 5 mg/mL) respectively on wet ice. 1.5 μM mixed solution of compound to be tested and 1.5 μM mixed solution of ketanserin were obtained.
2.4 At the time points 0, 5, 15, 30, 45, and 60 min, 30 μl of the mixed solution of compound to be tested and 30 μl of the mixed solution of ketanserin were dispensed into the reaction plate on wet ice, respectively.
2.5 5 mg reduced coenzyme II (Roche, 10621706001) was weighed and dissolved in 1 mL of buffer C. 6 mM reduced coenzyme II solution was obtained. The reduced coenzyme II solution was dispensed into the reaction plate.
2.6 Imipramine was dissolved to give a 10 mM solution. 10 μl imipramine solution was added to 100 mL of blank acetonitrile to generate the internal reference.
2.7 At 0 min, 135 μL of iced acetonitrile (Merck, UN 1648) containing the internal reference was added to each well and then 15 μL of buffer C was added.
2.8 The reaction plate was placed into a 37° C. water bath incubator for 5 min. In the reaction plate, 15 μL of reduced coenzyme II solution was added to each well to initiate the reaction, and the time keeping was started. At the time points of 5, 15, 30, 45, and 60 min, 135 μL of iced acetonitrile containing the internal reference was added to each well to terminate the reaction.
2.9 The reaction plate was sealed with an aluminum film, placed on a vibration mixer and shaken at 500 rpm for 5 min. The plate was then centrifuged in a centrifuge at 3750 rp for 15 min.
2.10 The sample was diluted with pure water in accordance with the ratio of 1:1 and detected by LC/MS.
Half-life: 0.693/K (the slope by plotting based on the incubation time and logarithm of the concentration value)
Clearance ratio: (0.693/half-life)*(1/protein concentration (0.5 mg/mL))*(proportional factor)
Wherein, the K value and the proportional factor were calculated by those skilled in the art according to the methods described in the prior art and contained in the instructions of the liver microsome product.
(Liver microsomes are vesicles of endoplasmic reticulum, rich in cytochrome P450 enzymes.)

Data set [5] relates to MCF-7 cells. The data set is described as follows: Cell inhibitory activity detected by MTT assay, MCF-7. It is filed as cell-based. The following applies: Homo sapiens, MCF7, 72 h, read-out: MCF-7 cell (IC50/nM), cell growth inhibition. A digest of the protocol: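 MCF-7 cells in DMEM + 10% FBS were treated after adherence with compounds at 8 concentrations (0.0046–10 μM) for 72 h at 37 °C, 5% CO2.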
For orientation: Tetrazolium assays rely on reduction of a dye to a coloured formazan, in cell work by metabolically active cells.

Experimental findings from patent publication US10227324B2 (Shanghai Haiyan Pharmaceutical Technology Co., Ltd., priority 2014, dated 2019) are described below.

T3 sequence (O00329 whole entry): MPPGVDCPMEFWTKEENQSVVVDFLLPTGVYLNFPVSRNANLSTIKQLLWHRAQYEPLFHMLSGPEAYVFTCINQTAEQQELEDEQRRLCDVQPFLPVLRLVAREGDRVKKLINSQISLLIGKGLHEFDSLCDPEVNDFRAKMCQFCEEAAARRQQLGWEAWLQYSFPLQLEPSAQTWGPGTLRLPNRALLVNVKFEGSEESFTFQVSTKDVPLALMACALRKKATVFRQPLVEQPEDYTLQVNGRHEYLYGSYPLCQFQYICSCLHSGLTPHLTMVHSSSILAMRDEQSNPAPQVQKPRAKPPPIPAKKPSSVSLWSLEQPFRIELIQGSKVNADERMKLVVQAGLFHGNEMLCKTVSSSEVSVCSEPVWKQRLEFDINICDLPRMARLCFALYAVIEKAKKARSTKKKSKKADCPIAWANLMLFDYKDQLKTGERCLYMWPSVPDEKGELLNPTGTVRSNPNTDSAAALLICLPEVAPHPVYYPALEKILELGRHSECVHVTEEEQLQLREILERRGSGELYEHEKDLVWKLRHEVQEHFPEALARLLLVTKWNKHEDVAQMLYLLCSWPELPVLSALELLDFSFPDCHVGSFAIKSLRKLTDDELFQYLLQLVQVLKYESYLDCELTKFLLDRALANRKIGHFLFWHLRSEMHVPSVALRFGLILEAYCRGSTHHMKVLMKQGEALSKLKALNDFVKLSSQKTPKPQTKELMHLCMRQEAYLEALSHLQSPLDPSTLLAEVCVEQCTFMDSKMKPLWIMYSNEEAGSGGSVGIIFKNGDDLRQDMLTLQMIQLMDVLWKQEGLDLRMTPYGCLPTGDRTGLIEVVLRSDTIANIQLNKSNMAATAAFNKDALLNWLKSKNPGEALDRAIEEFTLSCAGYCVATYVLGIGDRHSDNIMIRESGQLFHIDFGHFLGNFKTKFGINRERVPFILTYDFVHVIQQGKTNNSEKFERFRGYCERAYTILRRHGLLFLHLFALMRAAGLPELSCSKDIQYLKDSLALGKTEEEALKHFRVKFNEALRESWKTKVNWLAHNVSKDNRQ
T3 sequence (P27986 whole entry partner): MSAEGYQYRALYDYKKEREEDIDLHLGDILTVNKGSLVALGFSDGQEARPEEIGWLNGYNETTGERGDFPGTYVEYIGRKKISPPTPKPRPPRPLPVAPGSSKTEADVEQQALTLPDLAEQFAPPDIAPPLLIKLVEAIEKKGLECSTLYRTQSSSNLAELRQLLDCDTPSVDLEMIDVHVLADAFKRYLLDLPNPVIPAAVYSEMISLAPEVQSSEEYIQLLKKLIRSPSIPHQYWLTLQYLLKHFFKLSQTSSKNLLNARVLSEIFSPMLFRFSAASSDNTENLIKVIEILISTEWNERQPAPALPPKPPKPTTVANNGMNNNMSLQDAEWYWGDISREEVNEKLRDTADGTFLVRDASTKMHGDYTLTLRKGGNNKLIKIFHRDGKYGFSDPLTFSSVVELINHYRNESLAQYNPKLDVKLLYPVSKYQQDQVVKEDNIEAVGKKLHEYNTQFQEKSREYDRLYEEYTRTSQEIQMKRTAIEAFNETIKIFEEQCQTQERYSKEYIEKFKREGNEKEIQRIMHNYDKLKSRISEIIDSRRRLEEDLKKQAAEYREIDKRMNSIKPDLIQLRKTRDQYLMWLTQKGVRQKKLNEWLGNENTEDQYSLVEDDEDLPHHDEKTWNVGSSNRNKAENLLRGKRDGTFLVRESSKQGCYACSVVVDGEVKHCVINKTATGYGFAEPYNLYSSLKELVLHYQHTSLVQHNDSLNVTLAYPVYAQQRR
T2 sequence (P42338 whole entry): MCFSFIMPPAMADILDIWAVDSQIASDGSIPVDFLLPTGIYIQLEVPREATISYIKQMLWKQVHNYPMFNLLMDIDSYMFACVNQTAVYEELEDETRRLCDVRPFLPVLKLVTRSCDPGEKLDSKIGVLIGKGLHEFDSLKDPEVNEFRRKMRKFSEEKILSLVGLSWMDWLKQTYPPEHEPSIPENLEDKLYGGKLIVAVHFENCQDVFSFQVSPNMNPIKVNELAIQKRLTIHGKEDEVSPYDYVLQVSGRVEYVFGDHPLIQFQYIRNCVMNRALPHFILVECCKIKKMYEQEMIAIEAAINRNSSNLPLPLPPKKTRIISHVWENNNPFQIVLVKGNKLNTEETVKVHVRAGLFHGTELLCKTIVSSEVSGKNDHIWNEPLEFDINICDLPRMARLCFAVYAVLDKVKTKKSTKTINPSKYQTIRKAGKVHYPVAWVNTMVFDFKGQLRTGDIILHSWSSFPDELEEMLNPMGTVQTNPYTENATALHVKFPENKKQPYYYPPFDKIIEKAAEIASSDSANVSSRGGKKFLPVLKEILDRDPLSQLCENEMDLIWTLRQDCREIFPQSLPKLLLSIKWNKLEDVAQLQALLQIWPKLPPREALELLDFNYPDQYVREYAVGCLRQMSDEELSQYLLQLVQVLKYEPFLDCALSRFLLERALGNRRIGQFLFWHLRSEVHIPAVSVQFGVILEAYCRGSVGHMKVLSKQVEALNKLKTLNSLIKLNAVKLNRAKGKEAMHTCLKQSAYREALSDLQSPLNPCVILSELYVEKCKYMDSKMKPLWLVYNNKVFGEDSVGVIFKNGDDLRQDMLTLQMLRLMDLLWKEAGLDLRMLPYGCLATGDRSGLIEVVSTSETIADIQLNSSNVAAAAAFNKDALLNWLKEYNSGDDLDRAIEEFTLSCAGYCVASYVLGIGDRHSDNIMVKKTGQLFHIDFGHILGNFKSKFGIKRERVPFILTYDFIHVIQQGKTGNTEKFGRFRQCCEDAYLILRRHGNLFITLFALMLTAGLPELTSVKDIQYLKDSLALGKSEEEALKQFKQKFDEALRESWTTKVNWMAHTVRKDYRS
T2 sequence (P27986 whole entry partner): as the sequence (P27986 whole entry partner) above
T1 sequence (P42336 whole entry): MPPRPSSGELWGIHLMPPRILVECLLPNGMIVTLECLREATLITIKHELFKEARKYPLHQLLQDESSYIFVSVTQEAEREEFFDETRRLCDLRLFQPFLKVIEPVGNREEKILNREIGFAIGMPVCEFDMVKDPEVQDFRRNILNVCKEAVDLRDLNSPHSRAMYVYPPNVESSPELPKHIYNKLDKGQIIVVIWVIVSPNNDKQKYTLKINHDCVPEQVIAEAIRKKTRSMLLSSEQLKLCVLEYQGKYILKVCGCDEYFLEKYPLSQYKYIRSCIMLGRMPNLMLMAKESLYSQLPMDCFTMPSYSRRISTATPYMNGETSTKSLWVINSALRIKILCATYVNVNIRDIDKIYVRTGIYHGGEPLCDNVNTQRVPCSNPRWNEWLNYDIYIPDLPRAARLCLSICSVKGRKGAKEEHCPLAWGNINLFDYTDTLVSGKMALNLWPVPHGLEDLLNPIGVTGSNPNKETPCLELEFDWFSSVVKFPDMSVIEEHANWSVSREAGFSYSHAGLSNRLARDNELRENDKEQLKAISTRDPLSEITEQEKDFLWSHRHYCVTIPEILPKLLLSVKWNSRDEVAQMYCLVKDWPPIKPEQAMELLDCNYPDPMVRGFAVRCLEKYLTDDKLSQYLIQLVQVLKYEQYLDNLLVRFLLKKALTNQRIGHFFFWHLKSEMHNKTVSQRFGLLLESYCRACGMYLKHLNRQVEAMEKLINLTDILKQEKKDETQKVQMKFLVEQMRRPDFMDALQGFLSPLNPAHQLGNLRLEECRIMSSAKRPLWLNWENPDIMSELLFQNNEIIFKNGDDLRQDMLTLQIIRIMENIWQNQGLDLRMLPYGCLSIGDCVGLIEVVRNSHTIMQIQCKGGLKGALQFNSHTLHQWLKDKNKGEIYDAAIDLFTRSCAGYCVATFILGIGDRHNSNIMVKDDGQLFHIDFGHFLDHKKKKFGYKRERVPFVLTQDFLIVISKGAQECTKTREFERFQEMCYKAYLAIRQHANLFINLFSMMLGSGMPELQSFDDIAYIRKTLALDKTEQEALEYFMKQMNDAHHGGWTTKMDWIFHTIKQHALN
T1 sequence (P27986 whole entry partner): as the sequence (P27986 whole entry partner) above

For the compound `CS(=O)(=O)C1(c2cc(-c3cnc(N)cc3C(F)(F)F)nc(N3CCOCC3)n2)CCC1` [Compound S-4], the IC50 is 12 nM in data set [1], 527 nM in data set [2] and 184 nM in data set [3]. The “Clearance ratio (mL/min/kg) mouse” value in data set [4] was determined as 442.63 mL/min/kg.
Consider `CC(C)(c1cc(-c2cnc(N)cc2Cl)nc(N2CCOCC2)n1)S(C)(=O)=O` [Compound S-38, 4-chloro-5-(6-(2-(methylsulfonyl)prop-2-yl)-2-morpholinopyrimidin-4-yl)pyridin-2-amine], for which the IC50 in data set [1] stood at 17 nM; in data set [2], 113 nM; in data set [3] it was 212 nM; in data set [5] it was 180 nM. Moreover, in data set [4], the “Clearance ratio (mL/min/kg) mouse” value came to 103.77 mL/min/kg.
As for `Nc1cc(C(F)(F)F)c(-c2cc(C3(S(=O)(=O)c4ccccc4)CCC3)nc(N3CCOCC3)n2)cn1` [Compound S-20], the IC50 is 24 nM in data set [1], 676 nM in data set [2] and 42 nM in data set [3]. Also, in data set [4], the “Clearance ratio (mL/min/kg) mouse” value is given as 5641.44 mL/min/kg.
In the case of `CS(=O)(=O)C1(c2cc(-c3cnc(N)cc3F)nc(N3CCOCC3)n2)CC1` [Compound S-82], the IC50 was 39 nM in data set [1], 86 nM in data set [2], 132 nM in data set [3] and 27 nM in data set [5]. For the same compound, the “Clearance ratio (mL/min/kg) mouse” value in data set [4] was determined as 39.75 mL/min/kg.
For `CS(=O)(=O)C1(c2cc(-c3cnc(N)nc3C(F)(F)F)nc(N3CCOCC3)n2)CC1` [Compound S-46], the IC50 in data set [1] was 6 nM; in data set [2], 8 nM; in data set [3], 13 nM; in data set [5], 301 nM. Further, the “increase of inhibitory activity against PI3K-α kinase compared with BKM-120” value in data set [1] (relative to BKM-120) is on record as “about 10 times”. In addition, in data set [4], the “Clearance ratio (mL/min/kg) mouse” value amounted to 100.1 mL/min/kg.
As for `CC(C)(c1cc(-c2cnc(N)nc2C(F)(F)F)nc(N2CCOCC2)n1)S(C)(=O)=O` [Compound S-45], the IC50 in data set [1] amounted to 35 nM; in data set [2], 28 nM; in data set [3], 17 nM; in data set [5], 329 nM. In addition, the “Clearance ratio (mL/min/kg) mouse” value in data set [4] came out at 89.54 mL/min/kg.
